Consider 4 compounds from US7205261B2, “Use of certain N-acylethanolamines to achieve ethylene- and cytokinin-like effects in plants and fungi” (Nutra-Park, Inc., priority 2002, dated 2007).

SMILES strings stand for the structures. Like-named read-outs stand apart in the source and are kept apart here.

Test [1] relates to Raphanus sativus L. cv. Cherry Belle cotyledons. Briefly: Radish cotyledon bioassay (expansion growth and chlorophyll accumulation). The note with it: for Change in fresh weight: continuous illumination, 25° C., ten cotyledons; for activity at 20 µg/mL: Raphanus sativus, read-out: Change in fresh weight, % of control; for ethylene-like activities (summary of the examples) / cytokinin-like activities (summary of the examples): summary statement in the description. In kind it is in vivo. The text has this:
Radish cotyledon bioassay: This bioassay using Raphanus sativus L. cv. Cherry Belle cotyledons was developed by Letham, DS (Physiologia Plantarum 25, 391–396, 1971, incorporated by reference in its entirety) to evaluate the efficacy of cytokinin on cell enlargement. Success using this assay is not restricted to radish. […] In addition to their effect on cell division, cytokinin plays a major role in driving cell enlargement. Compounds in this class of phytohormone and with cytokinin activity also help maintain photosynthetic activity and productivity and abolish proteolytic activity. In cotyledon leaf systems, a requirement for cytokinin is critical and removal of the roots (i.e. the presumed source of cytokinin) renders the cotyledon leaves unable to expand. Exposure to cytokinin (0.02–22 μg/ml) results in a dramatic increase in fresh weight of cotyledons within 72 hours. This effect is not observed with either gibberellin or auxin and is usually delayed or inhibited by abscisic acid and the ethylene precursor, 1-aminocyclopropane-1-carboxylic acid (ACC). […] Thus, the mode of action of cytokinin in this system appears to be similar to that of indole-3-acetic acid (IAA) in auxin-induced stem elongation, a process that depends on an increase in the mechanical extensibility of the cell wall. However, cytokinin antagonizes IAA-mediated cell elongation and appears to do so by promoting ethylene production. Furthermore, cytokinin-induced cell expansion is not usually accompanied by proton (H^+) extrusion and no change in plasma membrane ATPase activity is evident.
Seeds of Raphanus sativus L. cv. Cherry-Belle were germinated in darkness at 24° C. for 36 h in Petri dishes containing filter paper wetted with distilled water. The smaller of the two cotyledons was excised, the fresh weight determined, and 10 cotyledons placed adaxial side down on filter paper in Petri dishes containing 10 ml of KPO4 buffer (2 mM, pH 6.0) and the compounds to be tested at 20 mg/l. […] Chlorophyll content was determined after extraction of tissue into 80% ethanol (containing butylated hydroxytoluene (BHT) 10 mg/l) using the equations Chl a=(13.95A663)−(6.88A647) and Chl b=(24.96A652)−(7.32A663) as described by Lichtenthaler, HK, Methods in Enzymology 148: 350–382, 1987, incorporated by reference in its entirety. FIG. 6 illustrates the difference in cotyledon size in response to the cytokinin kinetin.

The next test has as its system maize roots. Briefly: Corn root bioassay (ethylene production by maize roots). In kind it is in vivo, Zea mays L. The note with it: for activity at 20 µg/mL: Zea mays, read-out: Ethylene, % of control; for activity at 20 µg/mL / Ethylene: 20 mg/l. As to the method: Corn root bioassay: It is well established that roots of Zea mays produce ethylene when exposed to a variety of stresses (for review, see Morgan, PW and Drew, MC, Physiologia Plantarum 100: 620–630, 1997). Mechanical impedance and hypoxia both induce ethylene formation and usually as early as 1 hour after exposure. In response to ethylene treatment, maize roots show decreased expansion and elongation, a high incidence of cell death and the formation of aerenchyma tissue—particularly evident when roots are exposed to hypoxic conditions (Drew, MC et al., Trends in Plant Science 5: 123–127, 2000, Morgan and Drew 1997).
Seeds of Zea mays L. were sown in flats of Perlite, covered with a layer of vermiculite, and irrigated daily with water and/or 1/10 Hoagland solution. Seedlings were cultivated under continuous illumination at 22–25° C. and used when 7 d old. Seedlings were removed from the Perlite and washed under running tap water. Seedlings were allowed to acclimate in water and/or 1/10 Hoagland solution for several hours before being transferred to Falcon tubes containing the test compounds (all 20 mg/l) prepared in 1/10 Hoagland solution. […] Roots were then transferred to gas-tight tubes each containing 200 μl of water. The tubes were sealed and incubated at 26° C. for 1–2 h in darkness before gas samples were drawn from the incubation tubes using a 1 ml syringe and assayed by gas chromatography (Romera, FJ et al. (1999) Annals of Botany 83, 51–55).

The test system of test [2] is tomato variety FL47 mature green tomatoes. Briefly: Tomato bioassay (spray application or vacuum infiltration of harvested mature green tomatoes, ripening judged by colour). In kind it is in vivo. The note with it: 5 to 7 days after treatment, FIGS. 2-5. Here is the method: Tomato bioassay: NAE solutions containing 20 ppm or 500 ppm of NAE were used to treat harvested tomatoes as described below. The solutions were prepared by dispersing a solid NAE compound in water through sonication.
Egg LPE was purchased from Avanti Polar Lipids (Alabaster, Ala.). Egg LPE solutions containing 20 ppm or 500 ppm LPE were used as positive controls in the assays described below. The solutions were prepared by dispersing LPE into water through sonication or aggressive agitation.
The tomatoes used in this study were tomato variety FL47 (cultivar), 6×6 mature green tomatoes of good quality MG3–4 ([…]: no apparent external change from green to pink). The tomatoes were purchased from West Coast Tomato (Palmetto, Fla.) and Dimare Tomato (Homestead, Fla.).
The system used for classifying tomato mature stages is as the follows: Green (Stage 1)—“Green” means that the surface of the tomato is completely green in color. The shade of green may vary from light to dark. Breakers (Stage 2)—“Breakers” means there is a definite “break” in color from green, to tannish-yellow, pink or red on not more than 10% of the surface. […] Red (R) (Stage 6)—“Red” means that more than 90% of the surface, in the aggregate, is red.
Locules contain hard, white substance. […] Seeds are forming and are white. […] Seeds are fully formed and are turning from white to beige. MG4-Fruit are softening a little but still completely green on the outside. Inside locular gel is completely formed with hints of pink coloration in the columella tissue. Seeds are dark beige to light brown.
In spray application bioassays, the tomatoes were placed in 100° F. water for 90 seconds, after which the tomatoes were removed from water and placed stem scar up onto a sheet of plastic. An NAE solution or LPE solution was sprayed onto the tomatoes at 30 psi using a flat fan tip situated approximately 8 to 10 inches above the tomatoes. The tomatoes were air dried and placed on a sheet of white paper with stem scar down under consistent environmental conditions. Five to seven days later, the ripening of the tomatoes were determined by visual observation of the color of the tomatoes.
In vacuum infiltration bioassay, each tomato was placed on top of a vacuum bell jar platform with stem scar facing up. 0.5 ml of NAE solution or LPE solution was placed onto stem scar and the glass bell jar lid was lowered onto the jar platform. The vacuum was started and the air escaped from the interior of the tomato causing the NAE solution or the LPE solution on the stem scar to bubble. After a preset time period, the air inlet was opened slowly to release vacuum in the bell jar. […] Five to seven days later, the ripening of the tomatoes were determined by visual observation of the color of the tomatoes.

The mark [3] stands for this setting: experiment 2, 36 h illumination, roots incubated 2 h in darkness at 24° C.
Where [4] appears, read: Table 3, 48 h incubation, 20 mg/l.

On to `CCCCCCCC(=O)NCCO` [NAE-8:0, N-Octanoyl-2-aminoethanol], for which, in test [1] (Experiment 1, 20 mg/l, 72 h), the Chlorophyll a/b is on record as 1.5, the “Change in fresh weight” value is on record as 13.32 ± 6.40 mg and the activity at 20 µg/mL turned out to be 95%. Further, in test [1] (Experiment 2, 20 mg/l, 48 h), the “Chlorophyll (mg/g FW) a + b” value is 1.75 mg/g FW, the “Chlorophyll (μg/cotyledon) a + b” value was found to be 22.27 μg/cotyledon, the Chlorophyll a/b turned out to be 1.8 and the “Change in fresh weight” value came to 8.29 ± 0.72 mg. Moreover, in test [1] (Experiment 2, 20 mg/l, 48 h), the activity at 20 µg/mL came out at 102%. Further, the “chlorophyll accumulation (in words)” value in test [1] (Table 2, 72 h incubation, 20 mg/l) was “greater effect than other NAEs”. Further, the “ethylene-like activities (summary of the examples)” value in test [1] is recorded as “ethylene-like activities”. The activity at 20 µg/mL in the test on maize roots (experiment 1, 72 h) was 116%. Moreover, in the test with maize roots (experiment 2, 36 h), the activity at 20 µg/mL stood at 193%. Moreover, in the test on maize roots (experiment 1, 72 h illumination, roots incubated 2 h in gas tight tubes), the Ethylene is 685.2 ± 211.6 nL/g FW/h. In the test with maize roots (setting [3]), this compound returned an Ethylene of 55.46 ± 31.59 pmol/g FW/h. Besides, the “relative efficacy on ethylene formation (in words)” value in the test with maize roots (second experiment (Table 5)) is “strongest effect”.

Turning to `CCCCCCCCCC(=O)NCCO` [NAE-10:0, N-Decanoyl-2-aminoethanol], in test [1] (Experiment 1, 20 mg/l, 72 h), the Chlorophyll a/b is 1.5, the “Change in fresh weight” value stood at 10.34 ± 3.28 mg and the activity at 20 µg/mL was found to be 74%. In addition, in test [1] (Experiment 2, 20 mg/l, 48 h), the “Chlorophyll (mg/g FW) a + b” value is given as 1.41 mg/g FW, the “Chlorophyll (μg/cotyledon) a + b” value was 22.57 μg/cotyledon, the Chlorophyll a/b was determined as 1.8 and the “Change in fresh weight” value was found to be 11.56 ± 2.16 mg. For the same compound, the activity at 20 µg/mL in test [1] (Experiment 2, 20 mg/l, 48 h) was 143%. Also, in test [1] (setting [4]), the “chlorophyll content per unit mass (in words)” value was “decreased chlorophyll content per unit mass”, the “chlorophyll per cotyledon (in words)” value is “increased chlorophyll per cotyledon” and the “hormone-like activity with respect to expansion growth (in words)” value is recorded as “cytokinin-like activity”. In test [1], the “cytokinin-like activities (summary of the examples)” value is reported as “cytokinin-like activities” and the “ethylene-like activities (summary of the examples)” value is given as “ethylene-like activities”. Further, the “number of ripened tomatoes compared to the control group” value (shortened to “number … compared to the control group”) in test [2] (sprayed with 500 ppm) is reported as “higher number of ripened tomatoes”. The “number … compared to the control group” value in test [2] (vacuum infiltrated with 20 ppm) is recorded as “higher number of ripened tomatoes”. In addition, in the test on maize roots (experiment 1, 72 h), the activity at 20 µg/mL stood at 124%. For the same compound, in the test with maize roots (experiment 2, 36 h), the activity at 20 µg/mL came out at 115%. Moreover, in the test on maize roots (setting [3]), the Ethylene is 33.02 ± 9.63 pmol/g FW/h.

For `CCCCCCCCCCCCCC(=O)NCCO` [NAE-14:0, N-Tetradecanoyl-2-aminoethanol], in test [1] (Experiment 2, 20 mg/l, 48 h), the “Chlorophyll (mg/g FW) a + b” value amounted to 1.90 mg/g FW, the “Chlorophyll (μg/cotyledon) a + b” value is recorded as 23.41 μg/cotyledon, the Chlorophyll a/b worked out at 1.8 and the “Change in fresh weight” value is listed as 7.91 ± 1.34 mg. The activity at 20 µg/mL in test [1] (Experiment 2, 20 mg/l, 48 h) is 98%. Besides, the “cytokinin-like activities (summary of the examples)” value in test [1] was “cytokinin-like activities”. For the same compound, in test [2] (sprayed with 500 ppm), the “number … compared to the control group” value is reported as “higher number of ripened tomatoes”. Further, the “number … compared to the control group” value in test [2] (vacuum infiltrated with 20 ppm) is “higher number of ripened tomatoes”.

Take `CCCCCCCC/C=C\CCCCCCCC(=O)NCCO` [NAE-18:1(Δ9), N-Oleoyl-2-aminoethanol]: in test [1] (Experiment 2, 20 mg/l, 48 h), the “Chlorophyll (mg/g FW) a + b” value is 1.99 mg/g FW, the “Chlorophyll (μg/cotyledon) a + b” value was found to be 20.29 μg/cotyledon, the Chlorophyll a/b came out at 2.0 and the “Change in fresh weight” value turned out to be 5.78 ± 0.96 mg. For the same compound, the activity at 20 µg/mL in test [1] (Experiment 2, 20 mg/l, 48 h) turned out to be 71%. In test [1] (setting [4]), the “cotyledon expansion (in words)” value is “slowed cotyledon expansion” and the “hormone-like activity with respect to expansion growth (in words)” value was “ethylene-like activity”. In test [1], the “cytokinin-like activities (summary of the examples)” value is “cytokinin-like activities” and the “ethylene-like activities (summary of the examples)” value is reported as “ethylene-like activities”. For the same compound, the “increase of ethylene production (in words)” value in the test on maize roots (other experiments using a different treatment time) was “effective”.
